From patent publication US10561681B2, “Antimetastatic 2H-selenopheno[3,2-h]chromenes, synthesis thereof, and methods of using same agents” (Latvian Institute of Organic Synthesis, priority 2016, dated 2020)
“And” between values parts separate entries of the source, which are not always exact repeats. Identical values can stand only once.

Tests used:
[1] = Acute p.o. toxicity, Up-and-Down Procedure (OECD 425); conditions: mouse, in vivo, po; p.o. single dose, 6 weeks old male ICR mice
Method: Acute p.o. toxicity (LD50) was estimated by the Up-and-Down Procedure according to the OECD Test Guideline 425 [OECD (2001) Guideline for testing of chemicals OECD 425, acute oral toxicity—Up-and-Down Procedure, Paris, p. 1-26]. Animals were observed daily for clinical signs or mortality over a period of two weeks following the treatment. Compounds were dissolved in DMSO and then in PBS (pH 7.4; DMSO final concentration <1%). The test substance was administered in a single dose p.o. to mice. […]
Acute toxicity in vivo has been determined for I-10 and I-11 on 6 weeks old male ICR mice.

[2] = Basal cytotoxicity test, Neutral Red Uptake (NRU) assay; format: cell-based; conditions: for LD50 at 24 h: mouse, po, acute oral LD50 calculated from 3T3 NRU IC50 by regression formula, read-out: Basal cytotoxicity Estimated* LD50; for IC50 at 24 h: normal mouse embryo fibroblasts, read-out: Cytotoxicity IC50, 3T3
Summary of the method: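 Balb/c 3T3 fibroblasts (9000 cells/well) exposed 24 h to compounds at 1–1000 μg/ml in DMEM with 5% FBS. Viability by Neutral Red uptake (3 h, 0.05 mg/mL), absorbance at 540 nm relative to untreated cells; IC50 from concentration–response.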

[3] = tested on: SH-SY5Y (human neuroblastoma); assay: In vitro cytotoxicity, MTT test; format: cell-based; conditions: Homo sapiens, SH-SY5Y, 72 h, MTT, read-out: Cytotoxicity IC50, SHSY5Y
Summary of the method: (§1)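 72 h exposure, 37 °C/5% CO2; seeding 2-9·10^4 cells/mL depending on line. MTT 3 h in HEPES-buffered medium, DMSO solubilisation, A540. Untreated wells = control.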

[4] = tested on: A549 (human lung carcinoma); assay: In vitro cytotoxicity, MTT test; format: cell-based; conditions: Homo sapiens, A549, 72 h, MTT, 72 h; read-out: Cytotoxicity IC50, A549
Summary of the method: as §1

[5] = tested on: HT-1080 (human fibrosarcoma); assay: In vitro cytotoxicity, MTT test; format: cell-based; conditions: HT-1080, MTT, 72 h, read-out: Cytotoxicity IC50, HT-1080
Summary of the method: as §1

[6] = tested on: HepG2 (human hepatocellular carcinoma); assay: In vitro cytotoxicity, MTT test; format: cell-based; conditions: HepG2, MTT, 72 h, read-out: Cytotoxicity IC50, HepG2
Summary of the method: as §1

[7] = tested on: MCF-7 (human breast adenocarcinoma, estrogen-positive); assay: In vitro cytotoxicity, MTT test; format: cell-based; conditions: MCF7, MTT, 72 h, read-out: Cytotoxicity IC50, MCF-7
Summary of the method: as §1

CCL-8 (mouse sarcoma) = assay: In vitro cytotoxicity, MTT test; format: cell-based; conditions: MTT, 72 h, read-out: Cytotoxicity IC50, CCL-8
Summary of the method: as §1

[8] = tested on: MES-SA (human uterus sarcoma); assay: In vitro cytotoxicity, MTT test; format: cell-based; conditions: MTT, 72 h, read-out: Cytotoxicity IC50, MES-SA
Summary of the method: as §1

MG-22A (mouse hepatoma) = assay: In vitro cytotoxicity, MTT test; format: cell-based; conditions: MTT, 72 h, read-out: Cytotoxicity IC50, MG-22A
Summary of the method: as §1

[9] = tested on: MDA-MB-435s (human melanoma); assay: In vitro cytotoxicity, MTT test; format: cell-based; conditions: MTT, 72 h, read-out: Cytotoxicity IC50, MDA-MB-435s
Summary of the method: as §1

SMILES | LD50 at 2 weeks [1] | LD50 at 24 h [2] | IC50 at 24 h [2] | IC50 [3] | IC50 [4] | IC50 [5] | IC50 [6] | IC50 [7] | IC50 (CCL-8 (mouse sarcoma)) | IC50 [8] | IC50 (MG-22A (mouse hepatoma)) | IC50 [9]
COC(=O)c1cc2ccc3c(Br)c(CN4CCN(C)CC4)[se]c3c2oc1=O [Compound I-10, Methyl 7-bromo-8-((4-methylpiperazin-1-yl)methyl)-2-oxo-2H-selenopheno[3,2-h]chromene-3-carboxylate] | 891 mg/kg | 4300 µmol/kg and 2300 mg/kg | 86 ± 5 µM | > 117 µM | 187 ± 10 µM | 170 ± 9 µM | 187 ± 10 µM | 150 ± 9 µM | 94 ± 7 µM | > 187 µM | 64 ± 5 µM | > 187 µM
O=C(O)c1cc2ccc3c(Br)c(C4(O)CCCCC4)[se]c3c2oc1=O [Compound I-11, 7-Bromo-8-(1-hydroxycyclohexyl)-2-oxo-2H-selenopheno[3,2-h]chromene-3-carboxylic acid] | > 2000 mg/kg | > 5800 µmol/kg and > 2730 mg/kg | > 213 µM | > 117 µM | > 213 µM | 77 ± 5 µM | > 213 µM | 213 ± 6 µM | 149 ± 9 µM | 206 ± 10 µM | > 122 µM | 208 ± 13 µM
